We go through five compounds from patent US20090214498A1, “ANTIMICROBIAL PEPTIDES AND BACTERIAL STRAINS THAT PRODUCE THEM” (TEAGASC- NATIONAL DIARY PRODUCTS RESEARCH CENTRE, priority 2005, published 2009).

Values after ≈ are worked out from the molar mass of the structure shown. Values joined by “and” are separate entries in the source; they are usually repeats but may differ in a detail not shown here. Equal entries are not always repeated. Residues, ends and D or L forms follow the SMILES beside them.

Data set [1] has as its system E. coli DPC6053. Put plainly: 96-well plate assay (OD600), MIC. It counts as cell-based, Escherichia coli. The conditions noted are these: for minimum inhibitory concentration (MIC): E. coli DPC6053, 6 h at 37° C., OD600. As for the experimental part:
(§1) Preliminary characterisation of the antibacterial activity of peptides and fractions synthesised involved measurement of growth inhibition in a 96-well plate assay (1, 10) and utilisation of an agar diffusion method (16,39). […] A control without bacteria (sterility control) was also included. The plates were incubated for 6 h at 37° C. and culture growth monitored hourly. Minimum inhibitory concentrations (MIC's) were taken as the lowest concentration without visible growth, measured by recording the OD600, in a micro-titre plate reader. A well diffusion assay (16, 40) was used to detect antibacterial activity of purified and chemically synthesised peptides. These assays were performed in either Brain Heart Infusion (BHI), Luria Bertani (LB) or Nutrient agar (NA) seeded with 1 ml of an overnight culture of the indicator strains E. coli DPC6053, L. innocua DPC3306, E. sakazakii 5920 (ATCC12868) or E. sakazakii 8272 (NCTC8155) respectively. Wells, 4.6 mm in diameter, were cut into these agar plates, and 30 μl (0.162 mg/ml) of the peptide fraction placed in each well. Plates were stored at 4° C. for 4 h to permit radial diffusion of the peptide, incubated at 30° C. anaerobically or 37° C. aerobically for 24 h, and examined for zones of inhibition. The sensitivity of a strain to the peptides was scored according to the diameter of the zone of inhibition surrounding the well. The experiments were performed in triplicate and mean zone size calculated.

In data set [2] the test system is lactobacilli and other Gram-positive bacteria. The following applies: Floris et al. 2003; cited from earlier work.
Data set [3] deals with S. aureus, Streptococcus pyogenes and L. monocytogenes. The following applies: doses as low as; cited from earlier work.
Data set [4] deals with E. coli DPC6053. Nature of the data set: agar well diffusion assay, E. coli DPC6053. It counts as cell-based, Escherichia coli JM109. More on the design: key to zone of inhibition (inhibitory spectrum): +++: Zone of inhibition >2.0 cm in diameter produced.; ++: Zone of inhibition >1.5 cm in diameter produced.; +: Zone of inhibition >1.0 cm in diameter produced.; −: No zone detected. The following applies: for zone of inhibition (inhibitory spectrum): Escherichia coli JM109 DPC6053, pure synthesised peptide; for concentration at which the indicator organism was inhibited: agar well-diffusion assay. As for the experimental part:
as §1
A general note: Agar diffusion results depend on both activity and mobility in agar.

Data set [5] deals with E. coli O157:H7 DPC6054. Put plainly: agar well diffusion assay, E. coli O157:H7 DPC6054. Type of data set: cell-based, Escherichia coli. Also on record: key to zone of inhibition (inhibitory spectrum): +++: Zone of inhibition >2.0 cm in diameter produced.; ++: Zone of inhibition >1.5 cm in diameter produced.; +: Zone of inhibition >1.0 cm in diameter produced.; −: No zone detected. The following applies: for zone of inhibition (inhibitory spectrum): E. coli O157:H7 DPC6054, pure synthesised peptide.

The subject of data set [6] is E. coli O157:H7 DPC6055. Nature of the data set: agar well diffusion assay, E. coli O157:H7 DPC6055. It counts as cell-based, Escherichia coli. More on the design: key to zone of inhibition (inhibitory spectrum): +++: Zone of inhibition >2.0 cm in diameter produced.; ++: Zone of inhibition >1.5 cm in diameter produced.; +: Zone of inhibition >1.0 cm in diameter produced.; −: No zone detected. The following applies: for zone of inhibition (inhibitory spectrum): E. coli O157:H7 DPC6055, pure synthesised peptide.

For data set [7], the system named is E. sakazakii 5920 (ATCC12868). Put plainly: agar well diffusion assay, E. sakazakii 5920. Type of data set: cell-based, Enterobacter sakazakii. Also on record: key to zone of inhibition (inhibitory spectrum): +++: Zone of inhibition >2.0 cm in diameter produced.; ++: Zone of inhibition >1.5 cm in diameter produced.; +: Zone of inhibition >1.0 cm in diameter produced.; −: No zone detected. The following applies: for zone of inhibition (inhibitory spectrum): Enterobacter sakazakii ATCC12868 DPC6090, pure synthesised peptide. The procedure:
as §1

Data set [8] deals with E. sakazakii 8272 (NCTC8155). Nature of the data set: agar well diffusion assay, E. sakazakii 8272. It counts as cell-based, Enterobacter sakazakii. More on the design: key to zone of inhibition (inhibitory spectrum): +++: Zone of inhibition >2.0 cm in diameter produced.; ++: Zone of inhibition >1.5 cm in diameter produced.; +: Zone of inhibition >1.0 cm in diameter produced.; −: No zone detected. The conditions noted are these: for zone of inhibition (inhibitory spectrum): E. sakazakii NCTC8155 DPC6091, pure synthesised peptide. As for the experimental part: as §1

Data set [9] concerns L. innocua DPC3306. Put plainly: agar well diffusion assay, L. innocua DPC3306. Type of data set: cell-based. The following applies: Listeria innocua DPC3306; for zone of inhibition (inhibitory spectrum): pure synthesised peptide. The procedure:
as §1

In data set [10] the test system is Staphylococcus aureus DPC5246. Put plainly: agar well diffusion assay, S. aureus DPC5246. Type of data set: cell-based. More on the design: key: +++: Zone of inhibition >2.0 cm in diameter produced.; ++: Zone of inhibition >1.5 cm in diameter produced.; +: Zone of inhibition >1.0 cm in diameter produced.; −: No zone detected. The conditions noted are these: pure synthesised peptide.

Data set [11] has as its system Lactobacillus bulgaricus ATCC11842 DPC5383. Put plainly: agar well diffusion assay, L. bulgaricus DPC5383. Also on record: key: +++: Zone of inhibition >2.0 cm in diameter produced.; ++: Zone of inhibition >1.5 cm in diameter produced.; +: Zone of inhibition >1.0 cm in diameter produced.; −: No zone detected. The conditions noted are these: pure synthesised peptide. Type of data set: cell-based.

For data set [12], the system named is Streptococcus mutans DPC4069. Put plainly: agar well diffusion assay, S. mutans DPC4069. Type of data set: cell-based. The conditions noted are these: pure synthesised peptide. More on the design: key: +++: Zone of inhibition >2.0 cm in diameter produced.; ++: Zone of inhibition >1.5 cm in diameter produced.; +: Zone of inhibition >1.0 cm in diameter produced.; −: No zone detected.

Data set [13] concerns E. coli DPC6053. Nature of the data set: susceptibility to proteinase K, agar well diffusion assay. It counts as cell-based, Escherichia coli. The following applies: proteinase K 2050 U/ml, 1:1 volume ratio, 4° C., 6 h. The procedure: Plates were incubated at 37° C. for 24 h. The positive controls used were the peptides isracidin (Peptide Protein Research Ltd.) and Cecropin P1 (Sigma TM).

On to `CC[C@H](C)[C@H](NC(=O)[C@@H]1CCCN1C(=O)[C@H](Cc1cnc[nH]1)NC(=O)[C@H](CCCCN)NC(=O)[C@@H]1CCCN1C(=O)[C@@H](N)CCCNC(=N)N)C(=O)N[C@@H](CCCCN)C(=O)N[C@@H](Cc1cnc[nH]1)C(=O)N[C@@H](CCC(N)=O)C(=O)NCC(=O)N[C@@H](CC(C)C)C(=O)N1CCC[C@H]1C(=O)N[C@@H](CCC(N)=O)C(=O)N[C@@H](CCC(=O)O)C(=O)N[C@H](C(=O)N[C@@H](CC(C)C)C(=O)N[C@@H](CC(N)=O)C(=O)N[C@@H](CCC(=O)O)C(=O)N[C@@H](CC(N)=O)C(=O)N[C@@H](CC(C)C)C(=O)N[C@@H](CC(C)C)C(=O)N[C@@H](CCCNC(=N)N)C(=O)N[C@@H](Cc1ccccc1)C(=O)O)C(C)C` [isracidin, Isracidin] (H-RPKHPIKHQGLPQEVLNENLLRF-OH), for which the “minimum inhibitory concentration (MIC)” value in [1] is 50 µM and 59 µM. Also, the “concentration inhibiting in vitro growth” value in data set [2] is 0.1 to 1 mg/mL. Also, the “dose with strong protective effect” value in data set [3] is recorded as 10 μg per mouse.

Regarding `CC[C@H](C)[C@H](NC(=O)CNC(=O)[C@H](CCC(=O)O)NC(=O)[C@H](CO)NC(=O)[C@@H](NC(=O)[C@H](CCCNC(=N)N)NC(=O)[C@H](CCCCN)NC(=O)[C@H](CCCCN)NC(=O)[C@H](C)NC(=O)[C@H](CO)NC(=O)[C@H](CC(N)=O)NC(=O)[C@H](CCC(=O)O)NC(=O)[C@H](CC(C)C)NC(=O)[C@H](CCCCN)NC(=O)[C@H](CCCCN)NC(=O)[C@H](C)NC(=O)[C@@H](NC(=O)[C@H](CCCCN)NC(=O)[C@H](CO)NC(=O)[C@H](CC(C)C)NC(=O)[C@H](Cc1c[nH]c2ccccc12)NC(=O)[C@@H](N)CO)[C@@H](C)O)[C@@H](C)CC)C(=O)N[C@@H](C)C(=O)N[C@H](C(=O)N[C@@H](C)C(=O)N[C@H](C(=O)N[C@@H](CCC(N)=O)C(=O)NCC(=O)NCC(=O)N1CCC[C@H]1C(=O)N[C@@H](CCCNC(=N)N)C(=O)O)[C@@H](C)CC)[C@@H](C)CC` [Cecropin P1] (H-SWLSKTAKKLENSAKKRISEGIAIAIQGGPR-OH), the “MIC of commercially available control peptides” value in [1] (strain not given) turned out to be 50 µM.

Turning to “SDIPNPIGSENSEK (Strain DPC6026; listed as Lactobacillus acidophilus) [SEQ ID NO: 2, peptide of bovine αs1-casein f(183-207), found in fraction A1-49, chemically synthesised]”, the “inhibitory / antimicrobial activity (in words)” value is given as “no activity” in [4] (E. coli DPC6053, crude fermentates: 96-well plate assay or well diffusion assay) and “some inhibitory activity” in data set [9] (crude fermentates: 96-well plate assay or well diffusion assay). In addition, the “zone of inhibition (inhibitory spectrum)” value in data set [4] is “−”; in data set [5], “−”; in data set [6], “−”; in [7], “−”; in data set [8], “−”; in data set [9], “+ (Zone of inhibition >1.0 cm in diameter produced.)”. Further, the “zone of inhibition (inhibitory spectrum)” value in data set [10], in data set [11] and in data set [12] was “−” in each case. Also, in [13], the “antimicrobial activity after treatment with proteinase K” value (“antimicrobial activity after treatment” for short) is listed as “lose their antibacterial activity”.

As for `CC(C)C[C@H](NC(=O)[C@H](CC(C)C)NC(=O)[C@H](CC(N)=O)NC(=O)[C@H](CCC(=O)O)NC(=O)[C@H](CC(N)=O)NC(=O)[C@H](CC(C)C)NC(=O)[C@@H](N)C(C)C)C(=O)N[C@@H](CCCNC(=N)N)C(=O)O` [SEQ ID NO: 3] (H-VLNENLLR-OH; N-terminus and C-terminus assumed), the “zone of inhibition (inhibitory spectrum)” value in data set [4] is “+++ (Zone of inhibition >2.0 cm in diameter produced.)”; in [5], “+++ (Zone of inhibition >2.0 cm in diameter produced.)”; in data set [6], “+++ (Zone of inhibition >2.0 cm in diameter produced.)”; in data set [7] it was “+++ (Zone of inhibition >2.0 cm in diameter produced.)”; in [8], “+++ (Zone of inhibition >2.0 cm in diameter produced.)”; in data set [9] it was “++ (Zone of inhibition >1.5 cm in diameter produced.)”. Further, the figures for the “zone of inhibition (inhibitory spectrum)” value in [10], in data set [11] and in data set [12] were “−”, “+++ (Zone of inhibition >2.0 cm in diameter produced.)” and “++ (Zone of inhibition >1.5 cm in diameter produced.)”, respectively. The “concentration at which the indicator organism was inhibited” value in data set [4] (E. coli DPC6053) was 0.22 mM. Further, the “concentration at which inhibition was shown” value in [8] (agar well-diffusion assay, E. sakazakii DPC6091) was 0.22 mM. Also, the “minimum inhibitory concentration (MIC)” value in data set [1] is 220 µM (≈ 213 µg/mL). Further, the “antimicrobial activity after treatment” value in [13] was “lose their antibacterial activity”.

On to `CC[C@H](C)[C@H](N)C(=O)N[C@@H](CCCCN)C(=O)N[C@@H](Cc1c[nH]cn1)C(=O)N[C@@H](CCC(N)=O)C(=O)NCC(=O)N[C@@H](CC(C)C)C(=O)N1CCC[C@H]1C(=O)N[C@@H](CCC(N)=O)C(=O)N[C@@H](CCC(=O)O)C(=O)O` [SEQ ID NO: 1] (H-IKHQGLPQE-OH; N-terminus and C-terminus assumed), for which the “zone of inhibition (inhibitory spectrum)” value is “+++ (Zone of inhibition >2.0 cm in diameter produced.)” in data set [4]; “+++ (Zone of inhibition >2.0 cm in diameter produced.)” in data set [5]; “+++ (Zone of inhibition >2.0 cm in diameter produced.)” in data set [6]; “+++ (Zone of inhibition >2.0 cm in diameter produced.)” in data set [7]; “+++ (Zone of inhibition >2.0 cm in diameter produced.)” in data set [8]; “++ (Zone of inhibition >1.5 cm in diameter produced.)” in data set [9]. In addition, the figures for the “zone of inhibition (inhibitory spectrum)” value in [10], in data set [11] and in data set [12] were “−”, “+++ (Zone of inhibition >2.0 cm in diameter produced.)” and “++ (Zone of inhibition >1.5 cm in diameter produced.)”, respectively. In addition, the “concentration at which the indicator organism was inhibited” value in data set [4] (E. coli DPC6053) came to 0.05 mM. Also, the “concentration at which inhibition was shown” value worked out at 0.05 mM in data set [5] (agar well-diffusion assay, E. coli DPC6054 (O157:H7 derivative)); 0.05 mM in data set [6] (agar well-diffusion assay, E. coli DPC6055 (O157:H7 derivative)); 0.05 mM in [7] (agar well-diffusion assay, E. sakazakii 5920 (ATCC12868)). Moreover, the “minimum inhibitory concentration (MIC)” value in data set [1] is 78 µM (≈ 81.8 µg/mL). Also, the “antimicrobial activity after treatment” value in data set [13] is recorded as “lose their antibacterial activity”.
